This is an account of results in patent US20130116227A1, “BIARYL AMIDE DERIVATIVE OR PHARMACEUTICALLY ACCEPTABLE SALT THEREOF” (DAINIPPON SUMITOMO PHARMA CO., LTD., priority 2010, published 2013).

One assay deals with T1, aldosterone receptor (Rattus norvegicus, UniProt P22199).
T1 construct: centrifuged at 105,000 g for 30 minutes, and then a supernatant was collected as a renal soluble fraction; from tissue; host or cells: rat kidney (adrenalectomized rat), 105,000 g supernatant (cytosol)
T1 sequence (P22199 1-981): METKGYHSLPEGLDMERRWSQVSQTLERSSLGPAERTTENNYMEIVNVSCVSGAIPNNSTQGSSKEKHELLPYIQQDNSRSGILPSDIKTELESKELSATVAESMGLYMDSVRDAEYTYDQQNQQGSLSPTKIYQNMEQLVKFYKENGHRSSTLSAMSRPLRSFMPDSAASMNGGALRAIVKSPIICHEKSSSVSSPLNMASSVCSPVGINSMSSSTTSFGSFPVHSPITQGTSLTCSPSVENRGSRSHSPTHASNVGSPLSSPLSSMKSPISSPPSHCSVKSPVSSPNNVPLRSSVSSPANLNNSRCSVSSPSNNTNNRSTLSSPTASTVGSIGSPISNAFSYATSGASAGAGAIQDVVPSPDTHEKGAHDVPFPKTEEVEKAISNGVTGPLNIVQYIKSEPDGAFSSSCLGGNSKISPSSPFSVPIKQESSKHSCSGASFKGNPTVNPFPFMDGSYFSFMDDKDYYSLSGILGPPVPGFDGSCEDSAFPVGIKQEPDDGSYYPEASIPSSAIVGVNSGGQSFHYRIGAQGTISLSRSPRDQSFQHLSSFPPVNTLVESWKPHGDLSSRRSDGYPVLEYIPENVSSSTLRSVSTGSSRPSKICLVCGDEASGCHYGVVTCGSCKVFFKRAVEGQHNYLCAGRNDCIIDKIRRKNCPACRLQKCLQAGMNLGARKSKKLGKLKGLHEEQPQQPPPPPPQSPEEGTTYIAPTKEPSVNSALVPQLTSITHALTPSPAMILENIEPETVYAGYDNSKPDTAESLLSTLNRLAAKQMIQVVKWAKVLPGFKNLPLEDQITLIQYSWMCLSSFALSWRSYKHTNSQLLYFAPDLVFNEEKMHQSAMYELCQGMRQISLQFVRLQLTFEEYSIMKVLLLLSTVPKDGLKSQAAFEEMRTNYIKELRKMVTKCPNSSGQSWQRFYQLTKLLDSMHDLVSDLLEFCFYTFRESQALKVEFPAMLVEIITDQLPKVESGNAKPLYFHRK
As to the kind of experiment: Binding inhibition test for aldosterone receptor ([3H]aldosterone, rat renal soluble fraction). As to conditions: [3H]aldosterone 2 nM, rat renal soluble fraction, in the presence of 2 μM RU-486, 4° C. about 18 hours; read-out: MR IC50. In short, it runs like this:
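Renal soluble fraction (105,000 g supernatant, pH 7.4 Tris/sucrose/molybdate/DTT) from adrenalectomized rats, incubated with 2 nM [3H]aldosterone plus 2 μM RU-486, 4 °C, ~18 h. Bound ligand separated by dextran-coated charcoal, counted by scintillation; nonspecific binding with 2 μM aldosterone. Percent binding inhibition over 0.1–10000 nM test compound.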
On to `COc1cc(NC(=O)c2ccc(-c3ccc(F)cc3C(F)(F)F)cc2)ccc1S(N)(=O)=O` [Example 17], for which the IC50 stood at 1700 nM.
`COCc1ccccc1-c1ccc(C(=O)Nc2ccc(S(N)(=O)=O)c(OC)c2)cc1` [Example 28]: the IC50 was determined as 3000 nM.
Regarding `COc1cc(NC(=O)c2ccc(-c3ccccc3OC(F)(F)F)c(CN3CC(C)OC(C)C3)c2)ccc1S(N)(=O)=O` (centres unmarked) [Example 302], the IC50 worked out at 61 nM.
Same read-out and setting: with `COc1cc(NC(=O)c2ccc(-c3ccccc3C(C)(F)F)c(CNCC(F)F)c2)ccc1S(N)(=O)=O` [Example 469] the figure was below 10000 nM; with `COc1cc(C(=O)Nc2ccc(-c3ccccc3C(F)(F)F)c(COCCCO)c2)ccc1S(N)(=O)=O` [Example 333], 280 nM.
Regarding `COc1cc(NC(=O)c2ccc(-c3ccccc3OC(F)(F)C(F)F)c(CNCC(F)F)c2)ccc1S(N)(=O)=O` [Example 478], the 50% inhibitory concentration (IC50) is below 10000 nM.
For the compound `COc1cc(C(=O)Nc2ccc(-c3ccccc3C(F)(F)F)c(CC#N)c2)ccc1S(N)(=O)=O` [Example 363], the IC50 is 750 nM.
The same measure, in the same setting: then `COc1cc(NC(=O)c2ccc(-c3ccccc3C(=O)OC(C)(C)C)cc2)ccc1S(N)(=O)=O` [Example 31], with 250 nM; and `COc1cc(C(=O)Nc2ccc(-c3ccccc3C(F)(F)F)c(Cn3cccn3)c2)ccc1S(N)(=O)=O` [Example 405], with 210 nM.
Consider `CS(=O)(=O)c1ccc(NC(=O)c2ccc(-c3ccccc3OC(F)(F)F)c(CNc3ncccn3)c2)cc1` [Example 526], for which the IC50 amounted to 2200 nM.
In the case of `COc1cc(NC(=O)c2ccc(-c3ccccc3C3CCCCC3)cc2)ccc1S(N)(=O)=O` [Example 35], the concentration for half-maximal inhibition (IC50) is 350 nM.
Take `CS(=O)(=O)c1ccc(NC(=O)c2ccc(-c3ccccc3OC(F)(F)F)c(CN3CCCC3)c2)cc1` [Example 160]: the 50% inhibitory concentration (IC50) turned out to be 2000 nM.
On the same count and under the same terms, with `CS(=O)(=O)c1ccc(NC(=O)c2ccc(-c3ccccc3OC(F)(F)F)c(CN3CCCC(F)(F)C3)c2)cc1` [Example 144] the figure was 500 nM; with `COc1cc(NC(=O)c2ccc(-c3ccccc3C(F)(F)F)c(OCCOCc3ccccc3)c2)ccc1S(N)(=O)=O` [Example 109], 190 nM.
Take `COc1cc(NC(=O)c2ccc(-c3ccccc3OC(F)(F)F)c(CNC3CC3)c2)ccc1S(N)(=O)=O` [Example 288]: the half-inhibitory concentration (IC50) was 120 nM.
The same measure, in the same setting: then `COC(=O)c1cc(OC)ccc1-c1ccc(C(=O)Nc2ccc(S(N)(=O)=O)c(OC)c2)cc1` [Example 24], with 2400 nM; and `COc1cc(NC(=O)c2ccc(-c3ccccc3C(F)(F)F)c(CN3CCCC3)c2)ccc1S(N)(=O)=O` [Example 75], with 880 nM; and `COc1cc(NC(=O)c2ccc(-c3ccc(O)cc3C(F)(F)F)c(C)c2)ccc1S(N)(=O)=O` [Example 272], with 400 nM.
Same read-out and setting: then `COc1cc(NC(=O)c2ccc(-c3ccccc3F)c(CNCC(F)F)c2)ccc1S(N)(=O)=O` [Example 419], with 1200 nM; and `COc1cc(NC(=O)c2ccc(-c3ccccc3C(F)(F)F)c(CN(C)C)c2)ccc1S(N)(=O)=O` [Example 72], with 530 nM; and `COc1cc(NC(=O)c2ccc(-c3ccccc3OC(F)(F)F)c(CN3CCCCCCC3)c2)ccc1S(N)(=O)=O` [Example 299], with 140 nM.
On the same count and under the same terms, then `COc1cc(C(=O)Nc2ccc(-c3ccccc3C(F)(F)F)c(CN3CCSCC3)c2)ccc1S(N)(=O)=O` [Example 387], with 360 nM.
With `COc1cc(NC(=O)c2ccc(-c3ccccc3OC(F)(F)F)c(N)c2)ccc1S(N)(=O)=O` [Example 560], the IC50 came to 240 nM.
The same measure, in the same setting: then `CCOCc1cc(C(=O)Nc2ccc(S(N)(=O)=O)c(OC)c2)ccc1-c1cccnc1OCC` [Example 547], with below 10000 nM.
On the same count and under the same terms, with `Cn1cccc1CNCc1cc(C(=O)Nc2ccc(S(C)(=O)=O)cc2)ccc1-c1ccccc1OC(F)(F)F` [Example 182] the figure was 350 nM; with `COc1cc(NC(=O)c2ccc(-c3ccccc3C)c(CNCC(F)F)c2)ccc1S(N)(=O)=O` [Example 415], 630 nM.
For `COc1cc(NC(=O)c2ccc(-c3ccccc3OC(F)(F)F)c(CN(C)C3CC3)c2)ccc1S(N)(=O)=O` [Example 294], the concentration for half-maximal inhibition (IC50) worked out at 22 nM.
`COc1cc(C(=O)Nc2ccc(-c3ccccc3C(F)(F)F)c(Cc3nccn3C)c2)ccc1S(N)(=O)=O` [Example 550]: the IC50 stood at 620 nM.
For `CC(C)CCNCc1cc(C(=O)Nc2ccc(S(C)(=O)=O)cc2)ccc1-c1ccccc1OC(F)(F)F` [Example 226], the IC50 is below 10000 nM.
As to `COc1cc(NC(=O)c2ccc(-c3ccccc3C(F)(F)F)cc2)ccc1S(=O)(=O)N(C)C` [Example 50], the IC50 is 700 nM.
Take `COc1cc(NC(=O)c2ccc(-c3ccccc3C(F)(F)F)c(CO)c2)ccc1S(N)(=O)=O` [Example 69]: the IC50 worked out at 220 nM.

Another assay concerns normal rat. As to the kind of experiment: Antagonism (in vivo antagonist activity) against reduction of Na/K ratios in DOCA induced urine of normal rat. As to conditions: oral administration 30 minutes before DOCA 0.3 mg/kg s.c., urine collected for 8 hours. As for the experimental part:
Antagonism (In Vivo Antagonist Activity) Against Reduction of Na/K Ratios in Deoxycorticosterone Acetate (DOCA) Induced Urine of Normal Rat
A rat was encaged in a metabolism cage and was collected urine for 8 hours. When a test article was orally administered, it was administered in 5 ml/kg of dosage solution amounts using 0.5% methylcellulose as a solvent. DOCA was dissolved in corn oil in 0.3 mg/ml, and was subcutaneously administered in 1 ml/kg (0.3 mg/kg). Administration timing for a test article was 30 minutes before DOCA administration. 20 ml/kg of Solution amounts of saline was orally administered when administering DOCA in order to stabilize urine amounts and to secure enough amounts. Collected urine was analyzed its amounts, and then electrolyte (sodium: Na^+ and potassium: K^+) concentrations in urine were analyzed by an automatic biochemical analyzer (manufactured by JEOL Ltd., JCA-BM1650) to calculate ratios of Na^+ and K^+.
As for `COC(=O)[C@@H]1CC2=CC(=O)CC[C@]2(C)[C@@]23O[C@@H]2C[C@@]2(C)[C@@H](CC[C@@]24CCC(=O)O4)[C@H]13` [eplerenone], the “suppression of reduction of Na/K ratios in DOCA-induced urine” value was “suppressed reduction of Na/K ratios in DOCA-induced urine in a dose-dependent manner”.

As a reminder, the IC50 is the concentration that gives 50% inhibition.
